Measurements: publication PMC11788587, “Validating Low‐Dose Iohexol as a Marker for Glomerular Filtration Rate by In Vitro and In Vivo Studies” (Clinical and Translational Science, 2025)

Assays:
hMATE2K = biological target: T1, hMATE2K (Homo sapiens, UniProt Q86VL8); experiment: Inhibition of hMATE2K-mediated MPP+ uptake, stably transfected 293 cells; assay type: cell-based; settings: substrate 3 µM MPP+, median (95% CI)
T1 construct: expressed in transfected cells; host or cells: HEK-293 (293) cells, pEBTetD plasmid, doxycycline-induced
From the text: (§1) We characterized the inhibitory potential of iohexol on major drug transporters recommended by regulatory agencies, which were previously assessed in a clinical transporter phenotyping cocktail study. These transporters include hOAT1, hOAT3, hOCT1, hOCT2, hMATE1, hMATE2K, human organic anion transporter polypeptides (hOATP)1B1, hOATP1B3, and human multidrug resistance protein (hMDR)1. Additionally, we investigated whether iohexol is a substrate for any of the renal transporters among these, including hOAT1/3, hOCT1/2, and hMATE1/2K. Cell‐based uptake assays were used to assess the activities of hOAT1/3, hOCT1/2, hMATE1/2K, and hOATP1B1/1B3. Inside‐out membrane vesicle uptake assays were used to evaluate the activity of hMDR1.
(§2) To determine the maximal inhibitory potential of iohexol, intracellular accumulation of a standard substrate was measured with and without the clinically relevant highest concentrations of iohexol. Control inhibitors were tested in each experiment.
(§3) In all subsequent in vitro studies, control experiments were conducted to validate the results. These included positive controls for substrates and inhibitors, as well as cells either without transporter expression or transfected with an empty vector, and control vesicles. Each condition, including cells or vesicles with the transporter and their respective controls, was analyzed in at least three replicates. For detailed information on materials, methods, and data analysis techniques used, refer to the Supporting Information. […]
(§4) R version 4.2.1 (R Foundation for Statistical Computing, Vienna, Austria) was used for statistical evaluations and data visualization. The data analysis approach for the in vitro study was detailed by Hsin CH et al..^1 In brief, for transport assays, the initial uptake rate was calculated by normalizing the substrate concentration to both the protein concentration and the incubation time for each dish or well. The transporter-mediated uptake rate (net uptake) was determined by performing an element-wise subtraction of uptake rates from different conditions. […]

hOAT1 = biological target: T2, hOAT1 (Homo sapiens, UniProt Q4U2R8); experiment: Inhibition of hOAT1-mediated PAH uptake, stably transfected 293 cells; assay type: cell-based; settings: substrate 10 µM PAH, median (95% CI)
T2 construct: expressed in transfected cells; host or cells: HEK-293 (293) cells, pEBTetD plasmid, doxycycline-induced
T2 sequence (Q4U2R8 1-563): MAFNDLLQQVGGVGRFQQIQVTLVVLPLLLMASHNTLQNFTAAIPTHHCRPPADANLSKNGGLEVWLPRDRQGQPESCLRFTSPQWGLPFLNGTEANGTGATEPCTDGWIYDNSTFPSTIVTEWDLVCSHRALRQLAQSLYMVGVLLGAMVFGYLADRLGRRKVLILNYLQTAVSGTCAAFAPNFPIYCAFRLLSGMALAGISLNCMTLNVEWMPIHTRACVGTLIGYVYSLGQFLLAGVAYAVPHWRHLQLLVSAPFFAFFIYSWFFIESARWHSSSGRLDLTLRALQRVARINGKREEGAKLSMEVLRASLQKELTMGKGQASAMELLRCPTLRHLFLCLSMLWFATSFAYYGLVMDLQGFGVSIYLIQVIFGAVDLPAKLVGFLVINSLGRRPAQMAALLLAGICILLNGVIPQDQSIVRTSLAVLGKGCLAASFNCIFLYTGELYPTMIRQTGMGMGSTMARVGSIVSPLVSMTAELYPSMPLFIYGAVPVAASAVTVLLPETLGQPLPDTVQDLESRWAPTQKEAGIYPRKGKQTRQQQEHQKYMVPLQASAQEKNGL
From the text: as §1, §2, §3, §4

[1] = tested on: hOAT1, hOAT3, hOCT1, hOCT2, hMATE1, or hMATE2K; experiment: Substrate assessments, summary across transporters; assay type: in vitro ADME, human
From the text: as §1, with “Inside‐out membrane vesicle uptake assays were used to evaluate the activity of hMDR1.” left out
R version 4.2.1 (R Foundation for Statistical Computing, Vienna, Austria) was used for statistical evaluations and data visualization. The data analysis approach for the in vitro study was detailed by Hsin CH et al..^1 In brief, for transport assays, the initial uptake rate was calculated by normalizing the substrate concentration to both the protein concentration and the incubation time for each dish or well. The transporter-mediated uptake rate (net uptake) was determined by performing an element-wise subtraction of uptake rates from different conditions. […] Net uptake rates were determined by subtracting the uptake rate of the control cells or vesicles from that of the transporter-expressing cells or vesicles for each pair. […]

[2] = HEK293, 1 mM iohexol, read-out: Inhibitory effect (% reduction of specific activity)
[3] = HEK293, 20 mM iohexol, read-out: Inhibitory effect (% reduction of specific activity)

T1 sequence (Q86VL8 1-566 isoform Q86VL8-3): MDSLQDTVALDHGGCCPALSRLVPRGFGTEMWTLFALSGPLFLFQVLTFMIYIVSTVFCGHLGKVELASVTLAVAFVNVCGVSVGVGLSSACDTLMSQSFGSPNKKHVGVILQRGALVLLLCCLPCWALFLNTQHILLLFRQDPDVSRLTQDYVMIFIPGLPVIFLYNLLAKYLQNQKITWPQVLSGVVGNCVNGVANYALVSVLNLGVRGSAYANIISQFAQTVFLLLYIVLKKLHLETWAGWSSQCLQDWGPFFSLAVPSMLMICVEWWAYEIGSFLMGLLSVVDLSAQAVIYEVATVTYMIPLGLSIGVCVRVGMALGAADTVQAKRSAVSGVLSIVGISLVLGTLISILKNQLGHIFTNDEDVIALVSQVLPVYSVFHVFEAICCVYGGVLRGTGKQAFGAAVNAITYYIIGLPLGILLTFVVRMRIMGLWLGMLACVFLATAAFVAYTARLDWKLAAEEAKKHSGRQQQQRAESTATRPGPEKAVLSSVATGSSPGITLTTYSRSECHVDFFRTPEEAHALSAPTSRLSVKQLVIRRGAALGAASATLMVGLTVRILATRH

- Inhibitory effect (% reduction of specific activity) (hMATE2K; 20 mM iohexol): < 30%
- inhibition at 1000 µM (hMATE2K; [2]): 14%
- inhibition at 20000 µM (hMATE2K; [3]): 26%
- Inhibitory effect (% reduction of specific activity) (hOAT1; 20 mM iohexol): no notable inhibitory effects
- inhibition at 1000 µM (hOAT1; [2]): -0.45%
- inhibition at 20000 µM (hOAT1; [3]): 3.1%
- Increase in iohexol accumulation vs control cells, range of median values across transporters ([1]; 10 μM iohexol for 10 and 30 min): −0.67 to 1.5 pmol/mg protein
SMILES: CC(=O)N(CC(O)CO)c1c(I)c(C(=O)NCC(O)CO)c(I)c(C(=O)NCC(O)CO)c1I (centres unmarked) [iohexol]
- Substrate of the transporters (conclusion) ([1]; in vitro): neither a substrate nor a significant inhibitor
